Columns and labels:
[1] = Metabolism in tumour homogenates; assay type: in vitro ADME; conditions: 5 μmol dm^−3 prodrug, NADPH, pH 7.4, 37° C.
Description: Useful bioreductive prodrugs can be shown to release the active drug selectively under conditions of low oxygen in the presence of tumour homogenate in this assay. Freshly-excised CaNT tumours (approximately 0.5 to 1 g) were homogenised in 15 ml of ice-cold 50 mmol din^−3 potassium phosphate buffer at pH 7.4.

A549 cells = assay: Cellular cytotoxicity (Celltiter 96 Aqueous One Solution, MTS); assay type: cell-based; conditions: 61 h incubation period as printed, MTS absorbance 490 nm
Text: The cytotoxic or cytostatic properties of compounds of formula (1) and corresponding etoposide compounds can be assessed for example, by use, for example, of this assay. The Celltiter 96® Aqueous One Solution Cell Proliferation Assay kit (Promega Corporation, USA) which is a colorimetric method for determining the number of viable cells in proliferation or cytotoxicity assays was used. In this assay the MTS tetrazolium compound (Owen's Reagent) is bioreduced by viable cells into a coloured formazan product which is soluble in tissue culture medium and can be measured by recording absorbance at 490 nm with a 96 well plate reader. A549 cells were seeded in Eagles Minimum Essential Medium supplemented with 10% foetal calf serum and non-essential amino acids at 10^3 cell per well on a 96 well plate and allowed to attach for 24 h. Compounds were dissolved in DMSO and diluted with cell culture medium before addition. […] The MTS reagent was added to each well, left for 4 h, then the absorbance measured at 490 nm with a 96 well plate reader.

human P450 reductase = target: T1, human P450 reductase (Homo sapiens, UniProt P16435); assay: Drug release by human cytochrome P450 reductase; assay type: biochemical; conditions: NADPH, pH 7.4, 37° C.
T1 construct: purchased Gentest or Cypex P244 (Gentest) or Cyp004 (Cypex)
T1 sequence (P16435 1-677): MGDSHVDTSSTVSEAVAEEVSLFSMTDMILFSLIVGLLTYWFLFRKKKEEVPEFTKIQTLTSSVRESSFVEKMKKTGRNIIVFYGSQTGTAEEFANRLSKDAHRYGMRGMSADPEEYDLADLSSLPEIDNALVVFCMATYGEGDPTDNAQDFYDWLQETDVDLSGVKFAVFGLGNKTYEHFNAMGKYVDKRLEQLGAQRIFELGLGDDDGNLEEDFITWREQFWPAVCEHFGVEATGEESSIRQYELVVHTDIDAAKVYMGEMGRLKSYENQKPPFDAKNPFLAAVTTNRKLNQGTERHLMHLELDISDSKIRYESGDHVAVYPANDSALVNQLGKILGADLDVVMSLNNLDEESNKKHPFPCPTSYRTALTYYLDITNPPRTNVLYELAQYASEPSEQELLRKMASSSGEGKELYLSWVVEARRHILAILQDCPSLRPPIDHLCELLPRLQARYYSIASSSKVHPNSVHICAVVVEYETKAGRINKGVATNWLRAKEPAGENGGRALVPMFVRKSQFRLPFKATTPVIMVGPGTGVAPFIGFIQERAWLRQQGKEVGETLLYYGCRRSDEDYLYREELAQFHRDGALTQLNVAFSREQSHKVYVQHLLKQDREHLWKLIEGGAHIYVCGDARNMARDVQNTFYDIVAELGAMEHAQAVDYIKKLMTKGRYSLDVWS
Description: Cytochrome p450 reductase is widely expressed in human tumours as well as in a range of normal tissues and is one of a number of enzymes that can catalyse bioreduction. […] For experiments under nitrogen the mixture was degassed with nitrogen for 20 minutes prior to compound addition and overgassed with nitrogen during the incubation.

[2] = 5 μmol dm^−3 prodrug, NADPH, pH 7.4, 37° C.
Description: Freshly-excised mouse liver (approximately 1 g) was homogenised in 15 ml of ice-cold 50 mmol dm^−3 potassium phosphate buffer at pH 7.4. The homogenates were centrifuged at 1000 RPM for 10 min and the supernatants stored on ice. The metabolism of 5 µmol dm^−3 prodrug in air was performed with 0.5 ml liver homogenate (˜2 mg of protein by Bradford assay) with 100 µmol dm^−3 NADPH in 50 mmol dm^−3 potassium phosphate buffer at pH 7.4 incubated at 37° C. Samples (60 µl) were taken at regular intervals and added to an equivalent volume of acetonitrile, then mixed and centrifuged at 14, 300 RPM for 2 min prior to product analysis by HPLC.

9-[(4,6-O-Ethylidene-β-D-glucopyranosyl)oxy]-5,8,8a,9-tetrahydro-5-(4-(1-(5-nitrothien-2-yl)ethoxy)-3,5-dimethoxyphenyl)furo[3′,4′:6,7]naphtha[2,3-d]-1,3-dioxol-6(5aH)-one [Example 1]
etoposide production ([1]; under air): no etoposide production was detected
rate of etoposide production ([1]; under nitrogen): 17 μmol/min/mg protein
IC50 (A549 cells): > 20 µM
drug production (human P450 reductase; under air): no drug production could be detected
rate of etoposide production (human P450 reductase; under anoxia (nitrogen)): 0.83 nmol min^−1 mg protein^−1

9-[(4,6-O-Ethylidene-β-D-glucopyranosyl)oxy]-5,8,8a,9-tetrahydro-5-(4-(5-nitrothien-2-yl)methoxy)-3,5-dimethoxyphenyl)furo[3′,4′:6,7]naphtha[2,3-d]-1,3-dioxol-6(5aH)-one [Example 2]
Rate of drug release (pmol/min/mg protein) Anoxic ([2]; Anoxic (nitrogen)): 388 pmol/min/mg protein
Rate of drug release (pmol/min/mg protein) Oxic ([2]; Oxic (air)): 7 pmol/min/mg protein

COc1cc([C@@H]2c3cc4c(cc3[C@@H](O[C@@H]3O[C@@H]5CO[C@@H](C)O[C@H]5[C@H](O)[C@H]3O)[C@H]3COC(=O)[C@H]23)OCO4)cc(OC)c1O [etoposide, reference compound]
IC50 (A549 cells; Homo sapiens): 7.5 µM
